Data taken from patent US6080772A, “Thiazole compounds and methods of modulating signal transduction” (Sugen, Inc., priority 1997, dated 2000).

These compounds were tested on insulin receptor (IR) (assay: Phosphotyrosine enzyme linked immunosorbent assay: pTyr on insulin receptor in NIH3T3 cells over-expressing human IR (H25 cells)). Details: Table III; at 100 μM.
With `Nc1ccc(-n2nnnc2Sc2ncc([N+](=O)[O-])s2)cc1` [Compound 32, 1-(4-Aminophenyl)-5-[(5-nitrothiazol-2-yl)mercapto]tetrazole] the “increase in PTYR” value was 40%.

Same assay, conditions: from 15.6 μM to 250 μM
`O=[N+]([O-])c1cnc(Nc2nc(-c3ccc(Cl)cc3)n[nH]2)s1` [Compound 10, 3-(4-chlorophenyl)-5-[(5-nitrothiazol-2-yl)amino]-1,2,4-triazole] was tested, and the “dose dependence of the increase in the pTyr level” value was “dependent on the dose”.

Same assay, conditions: read-out: ACTIVITY EC50
In the case of `O=[N+]([O-])c1cnc(Sc2nnc(Sc3nnc(SCCCl)s3)s2)s1` [Compound 26, 2-(2-Chloroethylmercapto)-5-[[2-[(5-nitrothiazol-2-yl)mercapto]-1,3,4-thiadiazol-5-yl]mercapto]-1,3,4-thiadiazole], the EC50 is reported as 46 µM.

Same assay, conditions: read-out: ACTIVITY EC50; Table III; […]
`CCCn1c(Sc2ncc([N+](=O)[O-])s2)nc2c(O)nnc(O)c21` [Compound 49] gave an EC50 of 4 µM.
In the case of `Cc1cccc(C)c1NC1=CN=C(Sc2ncc([N+](=O)[O-])s2)SN1` [Compound 70, 3-(2,6-dimethylphenylamino)-6-[(5-nitrothiazol-2-yl)mercapto]-1,2,5-thiadiazine], the EC50 is reported as greater than 100 µM.
In the case of `O=[N+]([O-])c1cnc(Sc2nccc(-c3ccc(-n4cnc(Cl)c4Cl)cc3)n2)s1` [Compound 67, 4-[4-(4,5-Dichloroimidazol-1-yl)phenyl]-2-[(5-nitrothiazol-2-yl)mercapto]pyrimidine], the EC50 is reported as 3 µM.
`CCSc1nnc(Sc2ncc([N+](=O)[O-])s2)s1` [Compound 28, 2-Ethylmercapto-5-[(5-nitrothiazol-2-yl)mercapto]-1,3,4-thiadiazole] was tested, and the EC50 was 35 µM.
`O=[N+]([O-])c1cnc(Sc2nnc(SCC3CC3)s2)s1` [Compound 62, 2-Cyclopropylmethylmercapto-5-[(5-nitrothiazol-2-yl)mercapto]-1,3,4-thiadiazole] showed an EC50 greater than 100 µM.
`O=c1[nH]c(Sc2ncc([N+](=O)[O-])s2)nc2ccccc12` [Compound 35, 2-[(5-Nitrothiazol-2-yl)mercapto]-4-quinazolone] gave an EC50 greater than 25 µM.
`O=[N+]([O-])c1cnc(Sc2nccn2Cc2ccccc2)s1` [Compound 16, 1-Benzyl-2-[(5-nitrothiazol-2-yl)mercapto]imidazole] was tested, and the EC50 was 27 µM.
`CCOC(=O)c1c[nH]c(Sc2ncc([N+](=O)[O-])s2)n1` [Compound 43, 4-Ethoxycarbonyl-2-[(5-nitrothiazol-2-yl)mercapto]imidazole] was tested, and the EC50 was 8.5 µM.
`Cc1nnc(Sc2ncc([N+](=O)[O-])s2)s1` [Compound 60, 2-Methyl-5-[(5-nitrothiazol-2-yl)mercapto]-1,3,4-thiadiazole] was tested, and the EC50 was greater than 100 µM.
For `O=[N+]([O-])c1cnc(Sc2nnnn2-c2ccc(F)cc2)s1` [Compound 54, 1-(4-Fuorophenyl)-5-[(5-nitrothiazol-2-yl)mercapto]tetrazole], the EC50 was 42 µM.
`CSc1nnc(Sc2ncc([N+](=O)[O-])s2)s1` [Compound 61, 2-Methylmercapto-5-[(5-nitrothiazol-2-yl)mercapto]-1,3,4-thiadiazole] gave an EC50 of 32 µM.
For `O=[N+]([O-])c1cnc(Sc2nc3cc(C(F)(F)F)cc(Cl)c3[nH]2)s1` [Compound 41, 4-Chloro-2-[(5-nitrothiazol-2-yl)mercapto]-6-(trifluoromethyl)benzimidazole], the EC50 was 10 µM.
`O=C(CN(c1ccccc1)c1nnc(Sc2ncc([N+](=O)[O-])s2)s1)Nc1cccc(C(F)(F)F)c1` [Compound 21, 2-[N-Phenyl-N-[3-(trifluoromethyl)phenylaminocarbonylmethyl]amino]-5-[(5-nitrothiazol-2-yl)mercapto]-1,3,4-thiadiazole] showed an EC50 greater than 50 µM.
Work on `C=CCn1nnnc1Sc1ncc([N+](=O)[O-])s1` [Compound 30, 1-Allyl-5-[(5-nitrothiazol-2-yl)mercapto]tetrazole] yielded an EC50 of 32 µM.
Compound `CCOC(=O)c1cnc(Sc2ncc([N+](=O)[O-])s2)n1C` [Compound 44, 4-Ethoxycarbonyl-3-methyl-2-[(5-nitrothiazol-2-yl)mercapto]imidazole] has an EC50 of 7.6 µM.
`Cc1ccc(S(=O)(=O)n2c(Sc3ncc([N+](=O)[O-])s3)nc3ccccc32)cc1` [Compound 17, 1-Tosyl-2-[(5-nitrothiazol-2-yl)mercapto]benzimidazole] gave an EC50 greater than 25 µM.
